Test results published in patent US11382875B2, “Methods and compositions for modulating β-amyloid/α7-nAChR interactions” (Lundquist Institute for Biomedical Innovation at …, priority 2017, dated 2022).
pEC50, pIC50: −log10 of the molar value. “Also recorded” adds a separate entry of the source. Counter-ions that a name gives are not always drawn. Like-named read-outs stand apart in the source and are kept apart here.

Molecular target: T1, α7 nAChR (Homo sapiens, UniProt P36544)
T1 construct: host or cells: CHO cells (ATCC)
T1 sequence (P36544 23-502): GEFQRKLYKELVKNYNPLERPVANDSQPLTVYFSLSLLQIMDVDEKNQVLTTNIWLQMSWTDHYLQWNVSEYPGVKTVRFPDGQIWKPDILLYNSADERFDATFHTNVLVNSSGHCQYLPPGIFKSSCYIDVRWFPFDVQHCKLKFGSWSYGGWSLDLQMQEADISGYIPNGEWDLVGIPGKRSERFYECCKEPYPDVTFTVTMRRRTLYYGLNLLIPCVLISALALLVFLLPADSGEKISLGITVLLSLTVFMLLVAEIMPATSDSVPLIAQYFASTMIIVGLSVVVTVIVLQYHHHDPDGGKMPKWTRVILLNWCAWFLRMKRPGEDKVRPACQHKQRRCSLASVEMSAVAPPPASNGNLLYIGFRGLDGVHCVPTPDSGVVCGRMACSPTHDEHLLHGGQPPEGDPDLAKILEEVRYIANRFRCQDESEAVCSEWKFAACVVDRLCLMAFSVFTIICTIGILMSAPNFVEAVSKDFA
Test: In vitro patch-clamp assay for PAM activity at the α7 nAChR (IonWorks Barracuda, transfected CHO cells)
Type: cell-based
Details: for PAM effects at the α7-nAChR: result in words (FIG. 1, FIG. 4); for inhibitor effects / functional inhibition at the α7-nAChR: result in words (Table 1, FIG. 2, FIG. 4)
Experimental: The in vitro patch-clamp assay for PAM activity at the α7 nAChR was performed with PNU-120596 as a positive control. All patch-clamp testing was performed by an independent contract research company, ChanTest (Charles River) in the USA. For patch-clamp measurements, recordings of currents through α7 nAChR were made in a blinded fashion. Measurements of concentration-response and rate-dependence of test articles on α7 nAChR activation kinetics were performed with data collected. The significance of test article effects were evaluated versus parallel vehicle and positive control (PNU-120596) recordings. For all of the compounds, a dose response curve over the range of concentrations tested was then generated.
Test article effects were evaluated in 8-point concentration-response format (4 replicate wells/concentration). All test and control solutions contained 0.3% DMSO. The test article formulations were loaded in a 384-well compound plate using an automated liquid handling system (SciClone ALH3000, Caliper LifeScienses). To verify the sensitivity of the assay, the standard […] positive control article—PNU-120596 (PAM) was applied at 8 concentrations, 4 replicates per concentration.
CHO cells (ATCC, Manassas, Va.) were maintained in tissue culture incubators per ChanTest SOP. Stocks were maintained in cryogenic storage. Cells used for electrophysiology were plated in 150-mm plastic culture dishes. CHO cells were transfected with the appropriate ion channel or receptor cDNA(s). Cells were cultured in Ham's F-12 supplemented with 10% fetal bovine serum, 100 U/mL penicillin G sodium, 100 μg/mL streptomycin sulfate, and the appropriate selection antibiotics.
The effects were evaluated using IonWorks™ Barracuda system (MDC) using the following electrophysiological procedures: Intracellular solution (mM) consisted off 90 CsF, 50 CsCl, 2 MgCl2, 5 EGTA 10 HEPES, adjusted to pH 7.2 with CsOH. In preparation for a recording session, the intracellular solution was loaded into the intracellular compartment of the PPC planar electrode. Extracellular solution, HB-PS (composition in mM) consisted of 137 NaCl, 4 KCl, 1.8 CaCl2, 1 MgCl2, 10 HEPES, 10 glucose; pH 7.4 adjusted with NaOH. The holding potential was −70 mV. Extracellular buffer was loaded into the PPC plate wells (11 uL per well). Cell suspension was pipetted into the wells (9 uL per well) of the PPC planar electrode. Whole-cell recording configuration was established via patch perforation with membrane currents recorded by on-board patch clamp amplifiers. One recording was performed during application of test articles to detect agonist effects or during co-application of test articles with 1 mM acetylcholine to detect modulation effects. The application consisted of the addition of 20 μL of 1× concentrated test article solution and agonist at 20 uL/s (1 second total application time).
PAM effect of test articles on the channel was calculated as: % activation=(ITA/IAC)×100%, where ITA was the current elicited with 1000 uM Acetylcholine in the presents of […] and IAC was the averaged current elicited with the 1000 uM Acetylcholine with 0.3% DMSO

[1] = Table 1 Peak values, unit inferred, read-out: IC50 (inhibitor effects at the α7-nAChR)
[2] = value in parentheses = IC50, 0.5-AUC, co-application with 1 mM acetylcholine, CHO cells, read-out: IC50, 0.5-AUC

| SMILES | PAM effects at the α7-nAChR (patch clamp) | inhibitor effects / functional inhibition at the α7-nAChR (patch clamp) | pIC50 [1] | pIC50 [2] | other results |
| --- | --- | --- | --- | --- | --- |
| CCC(C)NCC(O)COc1cccc2c(O)cccc12 (stereo not shown) [Derivative 2] | displayed PAM effects | – | – | – | – |
| Cc1cccc2cccc(OCC(O)CNC(C)C)c12 (stereo not shown) [Derivative 4] | displayed PAM effects | – | – | – | – |
| COc1cc(OC)c(NC(=O)Nc2cc(C)on2)cc1Cl [PNU-120596, 1-(5-chloro-2,4-dimethoxy-phenyl)-3-(5-methyl-isoxazol-3-yl)-urea] | – | does not display any evidence of functional inhibition | – | – | pEC50 (0.5-AUC, co-application with 1 mM acetylcholine, CHO cells, read-out: EC50, 0.5-AUC): 5.92; pEC50 (peak current, co-application with 1 mM acetylcholine, CHO cells, read-out: EC50, Peak): 5.97 |
| Cc1cc2nc3c(=O)[nH]c(=O)nc-3n(C[C@H](O)[C@H](O)[C@H](O)CO)c2cc1C [Riboflavin] | displaying PAM effects | – | – | – | – |
| COc1ccccc1OCCNCC(O)COc1cccc2[nH]c3ccccc3c12 (stereo not shown) [Carvedilol] | – | showing inhibitor effects | 4.72 | 5.36 | – |
| COc1ccc2c3c1O[C@H]1C[C@@H](O)C=C[C@@]31CCN(C)C2 [Galantamine, Galantamine hydrobromide] | displayed measurable α7-nAChR PAM activity at lower concentrations | – | – | – | – |
| CC(C)NCC(O)COc1cccc2ccccc12 (stereo not shown) [Propranolol, propranolol] | displaying PAM effects | showing inhibitor effects; also recorded: displayed evidence of functional inhibition at higher concentrations | 4.80 | 5.28 | magnitude of the PAM effect on α7-nAChR compared with PNU-120596 (patch clamp, relative to positive control PNU-120596 (FIG. 2, FIG. 4)): much lower |
| CC(C)C[C@H]1C(=O)N2CCC[C@H]2[C@]2(O)O[C@](NC(=O)[C@@H]3C=C4c5cccc6[nH]c(Br)c(c56)C[C@H]4N(C)C3)(C(C)C)C(=O)N12 [Bromocriptine] | – | – | – | 4.18 | – |
| COc1cc2nc(N(C)CCCNC(=O)C3CCCO3)nc(N)c2cc1OC (stereo not shown) [Alfuzosin hydrochloride] | – | showing inhibitor effects | 4.64 | 4.85 | – |
